From the supplement of paper PMC11061612 come the findings set out here.

Test [1] concerns BICR78 (Oral Cavity Carcinoma). Put plainly: Bliss excess, mean over the matrix (fraction); higher = more synergy. In a few lines:
(§1)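 Cell lines in DMEM/F12 or RPMI with 10% FBS were plated in 1536-well plates, held 24 hours at 37°C, 5% CO2, then given two-drug dose matrices for 72 hours (DMSO typically 0.2%). Viability was read by CellTiter-Glo 2.0 luminescence and scaled as inhibition from 0 (vehicle wells) to 1 (blank wells). Combination Emax is the second-highest inhibition in the matrix; Bliss excess is observed combination effect minus expected EA + EB − EA·EB, EA and EB being single-agent effects.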

Test [2] has as its system CAL-39 (Other Solid Carcinomas). The description is as above. In a few lines: as §1
Test [3] concerns HCC1143 (Breast Carcinoma). The test is described as above. The procedure, abridged:
as §1

In test [4] the test system is HLE (Hepatocellular Carcinoma). Described as above. The procedure, abridged: as §1
Test [5] has as its system HuO9 (Osteosarcoma). The description is as above. The procedure, abridged:
as §1

In test [6] the test system is KG-1 (Acute Myeloid Leukemia). The test is described as above. The procedure, abridged:
as §1

In test [7] the test system is MSTO-211H (Mesothelioma). The test is described as above. In a few lines: as §1
Test [8] has as its system P31-FUJ (Acute Myeloid Leukemia). Described as above. The procedure, abridged: as §1
Test [9] relates to SKN-3 (Head and Neck Carcinoma). Described as above. The procedure, abridged: as §1
The subject of test [10] is SNG-M (Endometrial Carcinoma). The test is described as above. In a few lines: as §1
The test system of test [11] is SNU-61 (Colorectal Carcinoma). The description is as above. In a few lines: as §1
For test [12], the system named is SW48 (Colorectal Carcinoma). The description is as above. The procedure, abridged:
as §1

For test [13], the system named is TYK-nu (Ovarian Carcinoma). Described as above. The procedure, abridged:
as §1

For test [14], the system named is WSU-DLCL2 (B-Cell Non-Hodgkin's Lymphoma). Described as above. In a few lines:
as §1

Test [15] relates to 647-V (Bladder Carcinoma). Put plainly: combination Emax (second highest fraction inhibited in the dose matrix, 72 h); higher = more inhibition; extreme values may be limits of the assay. The procedure, abridged: as §1
The subject of test [16] is EFM-192A (Breast Carcinoma). Described as above. The procedure, abridged:
as §1

For test [17], the system named is HCC1143 (Breast Carcinoma). The test is described as above. In a few lines: as §1
Test [18] has as its system PA-TU-8902 (Pancreatic Carcinoma). Described as above. The procedure, abridged:
as §1

Test [19] has as its system SK-LMS-1 (Other Solid Carcinomas). The test is described as above. In a few lines: as §1
Test [20] deals with YT (Other Blood Carcinomas). The test is described as above. In a few lines: as §1
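For Bliss excess, mean over the matrix in this document: after 72 h of two-drug dosing.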

On to `Cn1cnc2c(F)c(Nc3ccc(Br)cc3Cl)c(C(=O)NOCCO)cc21` [Selumetinib] + C[C@@H]1COCCN1C2=NC(=NC(=C2)C3(CC3)[S@](=N)(=O)C)C4=C5C=CNC5=NC=C4 [AZD6738] (first compound max 10 µM, 7x7, partner max 10 µM), for which the Bliss excess in test [1] is -0.001; in [2], -0.0152; in [3] it was -0.0207; in [4] it was -0.0665; in test [5], 0.0042; in [6], 0.0218. In addition, the Bliss excess is -0.0453 in test [7]; -0.0802 in [8]; 0.0257 in [9]; -0.0561 in test [10]; 0.065 in test [11]; -0.017 in test [12]. The Bliss excess in [13] was 0.089; in [14], -0.0228. Moreover, the “combination Emax” value amounted to 0.757 in test [15]; 0.135 in test [16]; 0.766 in test [17]; 0.357 in [18]; 0.496 in test [19]; 0.801 in [20].

For `CC(=O)Nc1cccc(-n2c(=O)n(C3CC3)c(=O)c3c(Nc4ccc(I)cc4F)n(C)c(=O)c(C)c32)c1` [Trametinib] + Cc1nc(-c2cn3c(n2)-c2ccc(-c4cnn(C(C)(C)C(N)=O)c4)cc2OCC3)n(C(C)C)n1 [Taselisib] (first compound max 1 µM, 7x7, partner max 10 µM), the Bliss excess is 0.0654 in test [1]; 0.0657 in test [2]; 0.0615 in test [3]; -0.0291 in test [4]; 0.0587 in test [5]; 0.131 in [6]. In addition, the Bliss excess in test [7] turned out to be 0.122; in [8], 0.182; in test [9] it was 0.11; in [10], 0.102; in test [11], 0.0995; in test [12], 0.178. In addition, the values for the Bliss excess in test [13] and in test [14] were 0.138 and 0.0464, respectively. Further, the “combination Emax” value in test [15] worked out at 0.456; in test [16], 0.72; in test [17] it was 0.763; in test [18], 0.724; in test [19], 0.974; in test [20], 0.711.

For `CC1(C)CCC(CN2CCN(c3ccc(C(=O)NS(=O)(=O)c4ccc(NCC5CCOCC5)c([N+](=O)[O-])c4)c(Oc4cnc5[nH]ccc5c4)c3)CC2)=C(c2ccc(Cl)cc2)C1` [Venetoclax] + C1CN(CCC1(C(=O)N[C@@H](CCO)C2=CC=C(C=C2)Cl)N)C3=NC=NC4=C3C=CN4 [Capivasertib] (first compound max 1 µM, 7x7, partner max 3 µM), the Bliss excess in [1] is -0.0342; in test [2], -0.0183; in test [3], -0.0004; in [4] it was -0.0132; in [5], -0.0237; in test [6] it was 0.041. Also, the Bliss excess in [7] was -0.0496; in test [8], 0.0141; in [9] it was -0.033; in test [10], 0.0086; in test [11] it was -0.0321; in test [12], -0.0679. Further, the Bliss excess is -0.0343 in [13] and 0.0415 in test [14]. For the same compound, the “combination Emax” value in [15] worked out at 0.218; in [16], 0.379; in test [17], 0.239; in test [18], 0.162; in test [19], 0.271; in test [20] it was 0.47.

As for `CC1(C)CCC(CN2CCN(c3ccc(C(=O)NS(=O)(=O)c4ccc(NCC5CCOCC5)c([N+](=O)[O-])c4)c(Oc4cnc5[nH]ccc5c4)c3)CC2)=C(c2ccc(Cl)cc2)C1` [Venetoclax] + C=CCn1c(=O)c2cnc(Nc3ccc(N4CCN(C)CC4)cc3)nc2n1-c1cccc(C(C)(C)O)n1 [AZD1775] (first compound max 1 µM, partner max 1 µM), the Bliss excess in test [1] is 0.0011; in [2] it was -0.0308; in test [3], -0.0192; in [4], -0.0648; in test [5], 0.0227; in test [6] it was 0.201. The Bliss excess is -0.0183 in test [7]; 0.0685 in [8]; -0.0949 in test [9]; -0.0002 in [10]; -0.0321 in [11]; 0.0294 in test [12]. For the same compound, the Bliss excess in test [13] is -0.107; in [14], 0.0465. Further, the “combination Emax” value in test [15] was 0.612; in [16], 0.327; in test [17] it was 0.548; in test [18], 0.286; in [19] it was 0.61; in test [20], 0.928.

As to `CC1(C)CCC(CN2CCN(c3ccc(C(=O)NS(=O)(=O)c4ccc(NCC5CCOCC5)c([N+](=O)[O-])c4)c(Oc4cnc5[nH]ccc5c4)c3)CC2)=C(c2ccc(Cl)cc2)C1` [Venetoclax] + CCN(CCO)CCCOc1ccc2c(Nc3cc(CC(=O)Nc4cccc(F)c4)[nH]n3)ncnc2c1 [AZD2811] (first compound max 1 µM, 7x7, partner max 1 µM), the Bliss excess is -0.0393 in [1]; -0.0113 in test [2]; 0.0005 in test [3]; 0.005 in test [4]; 0.0203 in test [5]; 0.0766 in test [6]. In addition, the Bliss excess in test [7] is -0.0066; in test [8], -0.0512; in [9], -0.0167; in test [10] it was -0.0246; in test [11] it was -0.0084; in [12], -0.0071. The Bliss excess was -0.0266 in test [13] and 0.301 in test [14]. Besides, the “combination Emax” value in test [15] was found to be 0.245; in test [16], 0.212; in test [17], 0.318; in test [18], 0.192; in [19], 0.229; in test [20], 0.344.

With `CC1(C)CCC(CN2CCN(c3ccc(C(=O)NS(=O)(=O)c4ccc(NCC5CCOCC5)c([N+](=O)[O-])c4)c(Oc4cnc5[nH]ccc5c4)c3)CC2)=C(c2ccc(Cl)cc2)C1` [Venetoclax] + CN(C)CCCOc1ccc(-c2ccc3ncc4c(c3c2)n(C2CCOCC2)c(=O)n4C)cn1 [AZD0156] (first compound max 1 µM, 7x7, partner max 1 µM), the Bliss excess was 0.0047 in test [1]; -0.0214 in test [2]; -0.0051 in test [3]; -0.0463 in test [4]; 0.0483 in test [5]; 0.0741 in test [6]. Moreover, the Bliss excess is -0.0243 in [7]; -0.0179 in [8]; -0.0221 in [9]; -0.06 in test [10]; 0.0062 in test [11]; -0.0216 in test [12]. The values for the Bliss excess in test [13] and in test [14] were -0.0516 and 0.0518, respectively. Moreover, the “combination Emax” value in test [15] was 0.196; in test [16], 0.25; in [17], 0.232; in test [18], 0.209; in test [19] it was 0.5; in test [20], 0.475.

Regarding `CC1(C)CCC(CN2CCN(c3ccc(C(=O)NS(=O)(=O)c4ccc(NCC5CCOCC5)c([N+](=O)[O-])c4)c(Oc4cnc5[nH]ccc5c4)c3)CC2)=C(c2ccc(Cl)cc2)C1` [Venetoclax] + COc1cc(Nc2ncc3c(n2)-c2ccc(Cl)cc2C(c2c(F)cccc2OC)=NC3)ccc1C(=O)O [Alisertib] (first compound max 1 µM, 7x7, partner max 10 µM), the Bliss excess was -0.0276 in [1]; -0.0989 in [2]; 0.0244 in test [3]; 0.0066 in [4]; 0.135 in test [5]; 0.273 in test [6]. Besides, the Bliss excess in test [7] was 0.0116; in test [8], 0.0678; in test [9] it was -0.0565; in test [10], -0.0189; in [11], -0.0091; in [12] it was -0.0083. The Bliss excess in test [13] was -0.0415; in [14], 0.238. In addition, the “combination Emax” value is 0.317 in [15]; 0.167 in test [16]; 0.469 in test [17]; 0.394 in [18]; 0.579 in [19]; 0.555 in [20].
